Measured values reported in patent US11891401B2, “Solid forms of N-(4-fluoro-3-(6-(3-methylpyridin-2-yl)-[1,2,4]triazolo[1,5-a]pyrimidin-2-yl)phenyl)-2,4-dimethyloxazole-5-carboxamide” (NOVARTIS AG, priority 2018, dated 2024).
≈ marks a conversion by molar mass, not a printed value.

Legend:
Assay type in all cases: physicochemical
[1] = Solid-state chemical stability: degradation products by UPLC/HPLC after stress storage; settings: for DP % (Degradation Product), Bulk (UPLC): Solid state; for DP % (Degradation Product), Amber vial (HPLC) / DP % (Degradation Product), Clear vial (HPLC): Xenon light (approx. 1200 kLuxh)
Method: (§1) Compound I, Compound I fumaric acid co-crystals and amorphous Compound I fumaric acid samples (10 mg) were placed in an open vial at 50° C./75% RH and 80° C./75% RH chamber for one week. A same amount of sample was placed in a closed vial at 50° C. and 80° C. chamber for 1 week. The samples were exposed to 100 k Lux light for 12 h at 25° C. Solids were examined by XRPD for physical stability determination and by UPLC for chemical stability determination. The color of the samples was evaluated by visual observation. Table 5 compares the stability of Compound I and its various solid forms.

[2] = Solid-state physical stability: form change by XRPD after stress storage; settings: Solid state
Method: as §1

[3] = Solubility in various media at 25° C. after 24 hours equilibration (UPLC); settings: for final pH of the sample (in parentheses): after 24 hours equilibration
[4] = Dynamic Vapor Sorption (DVS) moisture absorption / hygroscopicity; settings: for solid form after DVS: after DVS testing; for moisture absorption by DVS: at 90% RH, 25° C.; for hygroscopicity: by DVS
[5] = Crystal form after grinding, compression and wet granulation; settings: compression and wet granulation (water and ethanol)
[6] = 1 week 80° C., closed container
[7] = 0.01N HCl pH 2.0, 25° C., 24 hours equilibration
[8] = 0.1N HCl pH 1.0, 25° C., 24 hours equilibration
[9] = FaSSIF pH 6.5, 25° C., 24 hours equilibration
[10] = FeSSIF pH 5.8, 25° C., 24 hours equilibration
[11] = SGF pH 2.0, 25° C., 24 hours equilibration
[12] = acetate buffer pH 4.7, 25° C., 24 hours equilibration
[13] = borate buffer pH 10.0, 25° C., 24 hours equilibration
[14] = phosphate buffer pH 6.8, 25° C., 24 hours equilibration
[15] = water, 25° C., 24 hours equilibration
[16] = 1 week 50° C., closed container
[17] = listed as Compound I fumaric acid co-crystals (2:1)

Row | Structure (SMILES) | DP % (Degradation Product), Bulk (UPLC) [1, 6] | DP % (Degradation Product), Bulk (UPLC) ([1]; 1 week 80° C./75% r.h.) | DP % (Degradation Product), Amber vial (HPLC) [1] | DP % (Degradation Product), Clear vial (HPLC) [1] | Bulk (XRPD) [2, 6] | solubility [3, 7] | final pH of the sample (in parentheses) ([3]; 0.01N HCl pH 2.0) | solubility [3, 8] | final pH of the sample (in parentheses) ([3]; 0.1N HCl pH 1.0) | solubility [3, 9] | final pH of the sample (in parentheses) ([3]; FaSSIF pH 6.5) | solubility [3, 10] | final pH of the sample (in parentheses) ([3]; FeSSIF pH 5.8) | solubility [3, 11] | final pH of the sample (in parentheses) ([3]; SGF pH 2.0) | solubility [3, 12] | final pH of the sample (in parentheses) ([3]; acetate buffer pH 4.7) | final pH of the sample (in parentheses) ([3]; borate buffer pH 10.0) | final pH of the sample (in parentheses) ([3]; phosphate buffer pH 6.8) | final pH of the sample (in parentheses) ([3]; water) | also measured
1 | Cc1nc(C)c(C(=O)Nc2ccc(F)c(-c3nc4ncc(-c5ncccc5C)cn4n3)c2)o1 [Amorphous Compound I Fumaric Acid (1:1), N-(4-fluoro-3-(6-(3-methylpyridin-2-yl)-[1,2,4]triazolo[1,5-a]pyrimidin-2-yl)phenyl)-2,4-dimethyloxazole-5-carboxamide] | 2.6% | 2.7% | 2.8% | 4.5% | no change | 36 µg/mL (≈ 81.2 µM) | (2.1) | 350 µg/mL (≈ 789 µM) | (1.1) | 7 µg/mL (≈ 15.8 µM) | (5.8) | 18 µg/mL (≈ 40.6 µM) | (5.6) | 55 µg/mL (≈ 124 µM) | (2.2) | <0.1 µg/mL | (4.6) | (9.6) | (6.6) | (3.0) | solubility [3, 13]: <0.1 µg/mL; solubility [3, 14]: <0.1 µg/mL; solubility [3, 15]: 0.2 µg/mL (≈ 0.451 µM)
2 | Cc1nc(C)c(C(=O)Nc2ccc(F)c(-c3nc4ncc(-c5ncccc5C)cn4n3)c2)o1 [Compound I Fumaric Acid Co-crystal (2:1), N-(4-fluoro-3-(6-(3-methylpyridin-2-yl)-[1,2,4]triazolo[1,5-a]pyrimidin-2-yl)phenyl)-2,4-dimethyloxazole-5-carboxamide] | 1.2% | 1.2% | 1.2% | 1.2% | no change | 5 µg/mL | (1.9) | 160 µg/mL | (0.8) |  | (5.9) |  | (5.5) | 30 µg/mL | (1.9) |  | (4.5) | (9.6) | (6.6) | (3.1) | DP % (Degradation Product), Bulk (UPLC) [1, 16]: 1.2%; DP % (Degradation Product), Bulk (UPLC) ([1]; 1 week 50° C./75% r.h.): 1.2%; Bulk (XRPD) [2, 16]: no change; Bulk (XRPD) ([2]; 1 week 50° C./75% r.h.): no change; solubility compared to the solubility of the free form ([3]; FeSSIF): significantly better; solubility at 24 h ([3]; thermodynamic from solid, FeSSIF pH 5.8, 25° C., 24 hours equilibration): 17 µg/mL; solid form after DVS [4, 17]: remains the same form; moisture absorption by DVS [4]: 0.12%; moisture absorption by DVS [4, 17]: 0.12%; hygroscopicity [4]: non-hygroscopic; hygroscopicity [4, 17]: non-hygroscopic
3 | Cc1nc(C)c(C(=O)Nc2ccc(F)c(-c3nc4ncc(-c5ncccc5C)cn4n3)c2)o1 [Form C, N-(4-fluoro-3-(6-(3-methylpyridin-2-yl)-[1,2,4]triazolo[1,5-a]pyrimidin-2-yl)phenyl)-2,4-dimethyloxazole-5-carboxamide] | 1.8% | 1.8% | 1.8% | 1.8% | no change |  |  | 240 µg/mL (≈ 541 µM) | (1.1) |  | (5.5) |  | (5.5) | 46 µg/mL (≈ 104 µM) | (2.0) |  | (4.4) |  | (6.4) | (2.9) | DP % (Degradation Product), Bulk (UPLC) [1, 16]: 1.8%; DP % (Degradation Product), Bulk (UPLC) ([1]; 1 week 50° C./75% r.h.): 1.7%; Bulk (XRPD) [2, 16]: no change; Bulk (XRPD) ([2]; 1 week 50° C./75% r.h.): no change; moisture absorption by DVS [4]: approximately 0.6%; hygroscopicity [4]: slightly hygroscopic
4 | Cc1nc(C)c(C(=O)Nc2ccc(F)c(-c3nc4ncc(-c5ncccc5C)cn4n3)c2)o1 [Amorphous Compound I Fumaric Acid (2:1), N-(4-fluoro-3-(6-(3-methylpyridin-2-yl)-[1,2,4]triazolo[1,5-a]pyrimidin-2-yl)phenyl)-2,4-dimethyloxazole-5-carboxamide] | 1.7% | 1.6% | 1.5% | 10.6% | no change | 9 µg/mL (≈ 20.3 µM) | (2.0) | 180 µg/mL (≈ 406 µM) | (1.1) | 3 µg/mL (≈ 6.77 µM) | (6.1) | 13 µg/mL (≈ 29.3 µM) | (5.7) | 25 µg/mL (≈ 56.4 µM) | (2.2) | <0.1 µg/mL | (4.7) | (9,7) | (6.7) | (3.2) | solubility [3, 13]: <0.1 µg/mL; solubility [3, 14]: <0.1 µg/mL; solubility [3, 15]: <0.1 µg/mL
5 | Cc1nc(C)c(C(=O)Nc2ccc(F)c(-c3nc4ncc(-c5ncccc5C)cn4n3)c2)o1 [Form B, N-(4-fluoro-3-(6-(3-methylpyridin-2-yl)-[1,2,4]triazolo[1,5-a]pyrimidin-2-yl)phenyl)-2,4-dimethyloxazole-5-carboxamide] | 1.7% | 1.7% | 1.7% | 1.6% | no change | 21 µg/mL (≈ 47.4 µM) | (2.1) | 170 µg/mL (≈ 383 µM) | (1.0) | 7 µg/mL (≈ 15.8 µM) | (5.7) | 16 µg/mL (≈ 36.1 µM) | (5.6) | 63 µg/mL (≈ 142 µM) | (1.9) | 2 µg/mL (≈ 4.51 µM) | (4.6) | (8.1) | (6.5) | (2.9) | DP % (Degradation Product), Bulk (UPLC) [1, 16]: 1.8%; DP % (Degradation Product), Bulk (UPLC) ([1]; 1 week 50° C./75% r.h.): 1.7%; Bulk (XRPD) [2, 16]: no change; Bulk (XRPD) ([2]; 1 week 50° C./75% r.h.): no change; stability and solubility (24 h) in aqueous media ([3]; aqueous media, 24 h, versus free form hydrate): comparable to the free form hydrate; solubility compared to the solubility of the free form ([3]; biological fluids SGF, FaSSIF and FeSSIF): significantly better; solubility [3, 13]: 2 µg/mL (≈ 4.51 µM); solubility [3, 14]: 2 µg/mL (≈ 4.51 µM); solubility [3, 15]: 4 µg/mL (≈ 9.02 µM); solid form after DVS [4]: remains the same form; moisture absorption by DVS [4]: 0.3%; hygroscopicity [4]: non-hygroscopic; crystal form after grinding, compression and wet granulation [5]: did not alter the crystal form
